PubChem BioAssay (NCI)
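Briefly, cells in 96-well plates were exposed to five compound concentrations for 48 h, and endpoints were estimated by linear interpolation. Here, GI50 denotes the concentration required for 50% inhibition of growth. Definition used: TGI = concentration required for complete inhibition of growth.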

Experiments:
Experiment in all cases: growth of human tumour cells (NCI), 48 h
UACC-62 melanoma = test system: UACC-62 melanoma
MALME-3M melanoma = test system: MALME-3M melanoma
SNB-19 CNS = test system: SNB-19 CNS
COLO 205 colon = test system: COLO 205 colon
A498 renal = test system: A498 renal
SK-MEL-28 melanoma = test system: SK-MEL-28 melanoma
SK-MEL-5 melanoma = test system: SK-MEL-5 melanoma
EKVX NSCLC = test system: EKVX NSCLC
OVCAR-8 ovarian = test system: OVCAR-8 ovarian
PC-3 prostate = test system: PC-3 prostate

Compound	GI50 (UACC-62 melanoma) [µM]	TGI (UACC-62 melanoma) [µM]	GI50 (MALME-3M melanoma) [µM]	TGI (MALME-3M melanoma) [µM]	GI50 (SNB-19 CNS) [µM]	TGI (SNB-19 CNS) [µM]	GI50 (COLO 205 colon) [µM]	TGI (COLO 205 colon) [µM]	GI50 (A498 renal) [µM]	TGI (A498 renal) [µM]	GI50 (SK-MEL-28 melanoma) [µM]	TGI (SK-MEL-28 melanoma) [µM]	GI50 (SK-MEL-5 melanoma) [µM]	TGI (SK-MEL-5 melanoma) [µM]	GI50 (EKVX NSCLC) [µM]	TGI (EKVX NSCLC) [µM]	GI50 (OVCAR-8 ovarian) [µM]	TGI (OVCAR-8 ovarian) [µM]	GI50 (PC-3 prostate) [µM]	TGI (PC-3 prostate) [µM]
COc1ccc2[nH]c(-c3ccccc3)c(C=C(C#N)C#N)c2c1	2.53	21.7	4.41	> 100	6.04	> 100	2.11	6.83	2.01	6.22	4.44	> 100	2.87	> 100	4.05	> 100	7.71	> 100	5.37	> 100
O=C(Nc1ccc(Cl)cc1F)c1cc(F)ccc1O	0.289	1.15	0.41	2.27	0.669	18.6			0.251	0.98	0.485	2.63	0.274	0.847	1.88	9.97	2.4	> 70.8	1.49	6.73
[C-]#[O+].[C-]#[O+].[Ir].[O-]c1ccc2ccccc2c1N=Nc1ccccc1		29.2		13		> 70.7		3.7		33.3		24.7		28.7	19.4	49.1	13.6	38.7		54
O=C1c2ccc3c4c(ccc(c24)C(=O)N1CCCNCc1ccccc1)C(=O)N(CCCNCc1ccccc1)C3=O	0.18	0.333	0.152	0.298	0.13	0.314	0.113	0.24	0.951	2.18	0.247	0.636	0.165	0.302	0.165	0.323	0.0993	0.407	0.203	0.622
CNS(=O)(=O)c1ccccc1C(=N)c1ccccc1		> 100		> 100		> 100		> 100		> 100		> 100		> 100		> 100		> 100		> 100
C/C(=C1/N=C(c2ccccc2)OC1=O)c1ccc(C)cc1		> 100		> 100		> 100		> 100		> 100		> 100		> 100		> 100		> 100		> 100
C[C@@H]1[C@H]2[C@H](C=C3[C@@H]4CC[C@H]5Cc6nc7c(nc6C[C@]5(C)[C@H]4C[C@@H](O)[C@@]32C)C[C@@H]2CC[C@H]3C4=C[C@@H]5O[C@@]6(CC[C@](C)(CO)O6)[C@@H](C)[C@@]5(O)[C@@]4(C)[C@H](O)C[C@@H]3[C@@]2(C)C7)O[C@]12CCC(C)(C)O2	0.348	2.54	1.58	22.7	0.653	7.28	0.292	0.926	0.236	0.543	0.518	21.3	0.783	5.2	0.377	14.1	10.1	> 100	0.391	6.76
O=[N+]([O-])c1cccc(/C=C/c2ccccn2)c1	60	> 100	37.5	> 100	39	> 100	24.3	95.5	7.19	> 100	> 100	> 100	28.7	> 100	43.8	> 100	45	> 100	29.1	> 100
O=C(C[C@@]1(O)C(=O)Nc2c(Cl)ccc(Cl)c21)c1ccc(C2CC2)cc1	0.378	15.6	0.542	23.9	0.69	18.1	0.298	2.13	0.213	0.75	3.5	23.5	0.355	11.6	0.631	30.7	0.577	19.3	0.434	20
Cc1cc(O)c(C2=NN(c3ccc(S(N)(=O)=O)cc3)C(c3ccccc3O)C2)cc1Cl (centres undefined)	2.18	6.59	2.2	6.7	3.5	11.4	1.86	3.41	1.69	7.29	2.74	6.8	5.6	18.2	1.96	6.52	2.8	8.54	1.33	3.26
C=CC(=O)NCCOc1cccc(Nc2cc(NCCCNC(=O)C3CCC3)c(Br)cn2)c1	2.58	6.87	1.46	6.43	1.08	14	0.632	2.1	0.52	1.8	1.64	8.78	1.39	5.24	2.31	22.5	1.82	> 25	1.3	11
CCN1CCC2(CC1)NC(=O)c1c(c3ccc(Cl)c(Cl)c3n1C)C2C#N (centres undefined)	1.77	3.32	1.76	3.37	7.1	24.5	1.86	4.11	1.34	3.32	1.65	3.07	1.61	3.06	3.4	17.8			> 100	> 100
C=CCC(N[C@@H](CO)c1ccccc1)c1ccccn1 (some centres undefined)	> 100	> 100	> 100	> 100			> 100	> 100	46.8	> 100	> 100	> 100	56.9	> 100	75	> 100	> 100	> 100	> 100	> 100
O=S(=O)(CC#CCCCOCC#Cc1ccccc1C#CCS(=O)(=O)c1ccccc1)c1ccccc1	17.7	39.7	20.6	59.7	> 100	> 100	72.3	> 100	> 100	> 100			15.3	31.8	> 100	> 100	16.1	42	20.4	65.3
